Measured values published in patent US20230027075A1, “SULFONAMIDE COMPOUNDS TARGETING CD73 AND ADENOSINE RECEPTORS” (Aurigene Discovery Technologies Limited, priority 2019, published 2023).

Legend:
[1] = biological target: T1, human-CD73 (Trp27-Lys547, His-tag) (Homo sapiens, UniProt P21589); experiment: CD73 biochemical assay (colorimetric, Malachite Green phosphate detection); settings: 2 nM CD73, 50 μM AMP
T1 construct: human-CD73 (Trp27-Lys547, His-tag); His-tag
T1 sequence (P21589 27-547): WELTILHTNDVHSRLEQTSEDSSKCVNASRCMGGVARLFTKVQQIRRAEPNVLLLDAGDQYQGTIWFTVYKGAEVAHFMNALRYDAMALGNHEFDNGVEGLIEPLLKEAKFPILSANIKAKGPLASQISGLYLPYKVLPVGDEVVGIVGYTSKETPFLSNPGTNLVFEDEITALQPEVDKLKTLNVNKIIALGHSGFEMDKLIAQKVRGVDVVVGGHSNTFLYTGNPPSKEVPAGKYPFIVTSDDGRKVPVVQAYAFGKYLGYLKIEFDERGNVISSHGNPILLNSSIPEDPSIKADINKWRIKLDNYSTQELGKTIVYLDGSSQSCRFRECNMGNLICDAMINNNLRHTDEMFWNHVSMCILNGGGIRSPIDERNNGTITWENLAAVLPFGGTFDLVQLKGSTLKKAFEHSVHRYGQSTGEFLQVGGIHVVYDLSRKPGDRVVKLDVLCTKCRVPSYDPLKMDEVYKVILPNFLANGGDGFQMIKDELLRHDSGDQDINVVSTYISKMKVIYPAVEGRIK
Description: A colorimetric-based method was used for assaying compounds of the invention for CD73 enzyme inhibitory activity. Human CD73 catalyzes the conversion of AMP to adenosine with the release of orthophosphate. A Malachite Green Phosphate Detection kit is used to measure the formation of orthophosphate product. […] A compound of the present invention and enzyme are incubated for 30 minutes at room temperature. Next, 20 μL of AMP in assay buffer is added to the plate. The final concentration of CD73 and AMP are 2 nM and 50 μM respectively. Following 30 minutes reaction at room temperature, 20 μL of Malachite reagent is added to all the reaction wells. The formation of green complex formed between Malachite Green, molybdate and free orthophosphate is measured on a plate reader (620 nm).

[2] = biological target: T2, A2aR (Homo sapiens, UniProt P29274); experiment: A2aR biochemical assay (TR-FRET binding, Tag-lite A2aR labelled cells, fluorescent antagonist); settings: 20 μM compound; 10 nM fluorescent A2aR antagonist; vs DMSO control; read-out: % inhibition at 20 μM (Percent inhibition data in A2aR)
T2 construct: expressed in transfected cells
T2 sequence (P29274 whole entry): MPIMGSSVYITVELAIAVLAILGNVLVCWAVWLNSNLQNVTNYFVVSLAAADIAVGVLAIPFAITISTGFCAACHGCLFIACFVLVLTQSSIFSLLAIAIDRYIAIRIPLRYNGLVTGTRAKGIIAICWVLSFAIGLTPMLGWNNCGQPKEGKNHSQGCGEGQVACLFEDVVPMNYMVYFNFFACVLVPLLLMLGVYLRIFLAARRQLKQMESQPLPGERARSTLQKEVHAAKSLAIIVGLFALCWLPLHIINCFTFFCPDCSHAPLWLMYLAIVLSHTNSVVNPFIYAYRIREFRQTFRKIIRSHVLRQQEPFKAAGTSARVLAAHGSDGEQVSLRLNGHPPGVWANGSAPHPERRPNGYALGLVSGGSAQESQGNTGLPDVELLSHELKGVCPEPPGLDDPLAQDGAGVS
Description: The compounds of present invention were assayed for A2aR enzyme binding activity in a TR-FRET based method. Typically, 10 μL of A2aR labelled cells in assay buffer (Tag-lite, 1×) is added to a 384-well plate containing 5 μL of a compound of present invention in final 1% DMSO, serially diluted in 1:5 in a 5-6 point titration. The aforesaid compound and cells are incubated for 30 minutes at room temperature. Next, 5 μL of A2aR antagonist (fluorescent ligand) in assay buffer is added to the plate. The final concentration of A2aR antagonist is 10 nM. Following 30 minutes reaction at room temperature, the plate was read on a plate reader (Ex: 340 nm Em: 615 nm and 665 nm) to measure the binding of test compound to A2aR cells. The results are interpreted as percentage inhibition as presented in Table-2A of binding by the test compound with respect to the DMSO control.

NC(=O)c1cc(S(=O)(=O)Nc2ccc(CCCNc3cc4nc(-c5ccco5)nn4c(N)n3)cc2)cc(Cl)c1O [Example A19, 5-(N-(4-(3-((5-amino-2-(furan-2-yl)-[1,2,4]triazolo[1,5-c]pyrimidin-7-yl)amino)propyl)phenyl)sulfamoyl)-3-chloro-2-hydroxybenzamide]
inhibition at 20 µM ([1]; 20 μM compound, read-out: % inhibition at 20 μM (Percent inhibition data in CD73)): 96%
IC50 ([1]; four-parameter curve fit, read-out: Potency (IC50 values) of selected compounds in CD73, group): > 1 µM
inhibition at 20 µM [2]: 83%
